Marks after values point to notes of the source that are not given here. Non-standard residues stand in square brackets, D forms with d. No end group written: not given here. pS = N[C@@H](COP(=O)(O)O)C(=O)O
Tests used:
[1] = test system: Human corneal epithelial (HCE) cells; test: WST-1 cell viability of HCE cells exposed to benzalkonium chloride (BAK); type: cell-based; conditions: BAK-treated HCE cells co-treated with histatin; FIG. 5
Method: Experiments were performed in triplicate. *<0.05, **<0.01. Bar represents SEM.
To determine whether histatins could improve symptoms of dry eye disease, cell viability assays were carried out in the presence of the toxic preservative benzalkonium chloride (BAK)(Yang, et al. (2017) Int. J. Mol. Sci. 18(3):509). Human corneal epithelial (HCE) cells were cultivated under standard conditions and viability was assessed using WST-1 reagent, a tetrazolium salt that is reduced to a red formazan dye by the mitochondrial dehydrogenases of metabolically active cells (Bartok, et al. (2015) EXCLI J. 14:123-132).

IL6 = IL6 expression induced by BAK application to HCE cells; type: cell-based, Human; conditions: BAK-treated HCE cells, histatin co-treatment
IL8 = IL8 expression induced by BAK application to HCE cells; type: cell-based, Human; conditions: BAK-treated HCE cells, histatin co-treatment
[2] = test system: dry eye disease murine model (BAK exposure); test: Murine model of dry eye disease (benzalkonium chloride exposure), NEI score; type: in vivo; conditions: twice a day topical 80 μM, by 7 days, versus vehicle control (BSS); FIG. 6
Method: Results are based upon the National Eye Institute/Industry (NEI) grading scale (Lemp (1995) CLAO J. 21:221-232) in animals treated with H5 or Balanced Salt Solution (BSS). All experiments were performed in triplicate. *<0.05, **<0.01. Bar represents SEM.

TNFα = TNFα expression induced by BAK application to HCE cells; type: cell-based, Human; conditions: BAK-treated HCE cells, histatin co-treatment
human corneal epithelia = conditions: Shah, et al. (2017) PLoS One 12(5):e0178030; cited from earlier work

## Histatin 5 (DSHAKRHHGYKRKFHEKHHSHRGY) [Histatin H5]
[1]
  HCE viability (WST-1): improved
IL6
  Decrease in cytokine expression IL6 mRNA: 45%*
  Decrease in cytokine expression IL6 protein: 45%
IL8
  Decrease in cytokine expression IL8 mRNA: 46%*
[2]
  standardized dry eye disease score (NEI score): reduced standardized dry eye disease score (NEI score) in a statistically significant manner
TNFα
  Decrease in cytokine expression TNFα protein: 32%**

## Histatin-1 (D[pS]HEKRHHGYRRKFHEKHHSHREFPFYGDYGSNYLYDN) [Histatin H1]
Human corneal epithelia
  migration of human corneal epithelia: promote migration
[1]
  HCE viability (WST-1): improved
IL6
  Decrease in cytokine expression IL6 mRNA: 82%**
  Decrease in cytokine expression IL6 protein: 48%*
IL8
  Decrease in cytokine expression IL8 mRNA: 86%**
TNFα
  Decrease in cytokine expression TNFα protein: 12%

Reference: patent US20210364534A1, “METHODS OF USING HISTATIN FOR DIAGNOSING AND TREATING A DRY EYE DISEASE OR OTHER OCULAR DISEASES” (THE BOARD OF TRUSTEES OF THE UNIVERSITY OF ILLINOIS, priority 2018, published 2021)
